How the values were obtained:
[1] = test system: Human fetal rhabdomyosarcoma cell line (RD cell, ATCC); experiment: 2-3H-deoxyglucose uptake by differentiated skeletal muscle cells; assay type: cell-based; conditions: for Uptake of radioactivity (2-3H-deoxyglucose) per 1 μg of protein: statin = 30 μM simvastatin, EPA = 50 μM sodium eicosapentate
Experimental: (1) Human fetal rhabdomyosarcoma cell line (RD cell, ATCC) was inoculated in 24 well plate and cultured in a growth medium (10% fetal bovine serum (FCS), Dulbecco's modified Eagle medium (DMEM), low glucose, 1% nonessential amino acid) to confluency. (2) The cells were then cultivated in differentiation medium (2% horse serum (HS), Dulbecco's modified Eagle medium (DMEM), low glucose, 1% nonessential amino acid) for 3 to 5 days for differentiation into muscle cell.
(3) After the incubation, the medium was removed by aspiration, and the cells were incubated in an uptake buffer (140 mM NaCl, 5 mM KCl, 2.5 mM MgSO4, 20 mM HEPES, 1 mM CaCl2, pH=7.4) supplemented with 10 μM of 2-3H-deoxyglucose at 37° C. for 12 minutes. (4) After the incubation, the cells were washed 4 times with cold stop solution (PBS(−)supplemented with 10 mM glucose).
The PBS(−) contained 0.2 g of NaH2PO4.2H2O, 3.225 g of Na2HPO4.12H2O, and 8 g of NaCl in 1 L, and the pH was at 7.2 to 7.4.
(5) After the washing, 500 μL/well of aqueous solution of 0.4N sodium hydroxide was added, and the cells were lyzed by heating to 56° for 20 minutes. (6) 300 μL of the well content (cell lysate) was mixed with 4 mL of Atomlight (manufactured by PerkinElmer), and ^3H count was measured with a liquid scintillation counter. The well content (cell lysate) was also measured for its protein concentration to calculate the ^3H count per 1 μg of the protein.
FIG. 1 is the graph showing the uptake of radioactivity (y axis) in relation to the incubation time (x axis) for each group.

[2] = test system: aged people of at least 66 years old administered with statin; conditions: compared to the case of pravastatin; cited from earlier work

## CCC(C)(C)C(=O)O[C@H]1C[C@@H](C)C=C2C=C[C@H](C)[C@H](CC[C@@H]3C[C@@H](O)CC(=O)O3)[C@H]21 [Statin, simvastatin]
[1]; 48 hr of incubation, vs control group, 30 μM simvastatin (with or without 50 μM EPA)
  rate of decrease of radioactivity uptake: about 73%
[1]; incubation time 1 hr
  Uptake of radioactivity (2-3H-deoxyglucose) per 1 μg of protein: 563 dpm/μg protein
[1]; incubation time 6 hr
  Uptake of radioactivity (2-3H-deoxyglucose) per 1 μg of protein: 489 dpm/μg protein
[1]; incubation time 24 hr
  Uptake of radioactivity (2-3H-deoxyglucose) per 1 μg of protein: 343 dpm/μg protein
[1]; incubation time 48 hr
  Uptake of radioactivity (2-3H-deoxyglucose) per 1 μg of protein: 170 dpm/μg protein

## CC[C@H](C)C(=O)O[C@H]1C[C@@H](C)C=C2C=C[C@H](C)[C@H](CC[C@@H]3C[C@@H](O)CC(=O)O3)[C@H]21 [lovastatin]
[2]
  risk of the incidence of the diabetes compared to pravastatin: no significant difference

## CC(C)c1c(C(=O)Nc2ccccc2)c(-c2ccccc2)c(-c2ccc(F)cc2)n1CC[C@@H](O)C[C@@H](O)CC(=O)O [atorvastatin]
[2]
  risk of the incidence of the diabetes compared to pravastatin: significantly increased

## CC(C)c1nc(N(C)S(C)(=O)=O)nc(-c2ccc(F)cc2)c1/C=C/[C@@H](O)C[C@@H](O)CC(=O)O [rosuvastatin]
[2]
  risk of the incidence of the diabetes compared to pravastatin: significantly increased

Source: patent US20210169837A1, “COMPOSITION FOR REDUCING NEW-ONSET DIABETES” (MOCHIDA PHARMACEUTICAL CO., LTD., priority 2012, published 2021)
